Laboratory results reported in patent publication US4804743A, “Proline-containing renin inhibitors” (Warner-Lambert Copmany, priority 1987, dated 1989).

Target: T1, renin (Homo sapiens, UniProt P00797)
T1 sequence (P00797 67-406): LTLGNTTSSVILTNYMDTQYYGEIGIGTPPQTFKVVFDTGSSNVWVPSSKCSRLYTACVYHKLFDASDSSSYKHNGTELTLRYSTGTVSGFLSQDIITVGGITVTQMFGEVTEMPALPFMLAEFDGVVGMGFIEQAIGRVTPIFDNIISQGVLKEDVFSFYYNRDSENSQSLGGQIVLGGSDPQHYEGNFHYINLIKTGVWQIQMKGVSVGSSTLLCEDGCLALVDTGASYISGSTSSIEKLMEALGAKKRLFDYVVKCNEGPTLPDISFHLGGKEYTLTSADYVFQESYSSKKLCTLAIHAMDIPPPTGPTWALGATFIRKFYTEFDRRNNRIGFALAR
Assay: in vitro renin inhibitory activity, radioimmunoassay for angiotensin I
Type: biochemical
Conditions: renin incubated two hours at 37° with substrate angiotensinogen; angiotensin I measured by radioimmunoassay
Description: The effectiveness of the aforementioned compounds is determined by a test for in vitro renin inhibitory activity. This activity is determined by a standard radioimmunoassay for angiotensin I. In this assay the enzyme, renin, incubated for two hours at 37° in the presence of a substrate, angiotensinogen, generates the product, angiotensin I. Test compounds are added to the incubation mixture. Relative activity is reported as the IC50, which is the molar concentration of test compound causing a 50% inhibition of the renin activity.

IC50: 1.1 µM
Substance: BOC-PHE-LEU-STA-GLN-PRO-OCH3 [Example 8]
